Series [1] has as its system serum uric acid. The conditions noted are these: monotherapy at 40, 80, 120, 160 and 240 mg/day, gout patients; cited from earlier work.
The subject of series [2] is serum uric acid. Description: Phase 1 multiple-dose study MBX102-2DM01011b: serum uric acid after daily oral dosing for 10 days. The conditions noted are these: for Mean % change: Day 9 vs baseline; for Mean change at Day 9: change from baseline; for Mean uric acid at Day 9: healthy adult subjects. It counts as in vivo, human. How it is done:
Methods used in relation to FIG. 3 showing reduction in serum uric acid in subjects over time following once daily dosing with arhalofenate were as follows.
A single centre, Phase 1, placebo- and positive-controlled, double-blind, randomized, dose escalation study (MAD study, MBX102-2DM01011b) was conducted to evaluate the multiple-dose pharmacokinetics (PK) of (-)-halofenate administered as a daily dose orally for 10 days, at the protocol-specified doses in healthy adult subjects. A total of 119 subjects completed study treatment according to protocol: 6 subjects received MBX-102 100 mg/day for 10 days; 6 subjects received MBX-102 200 mg/day for 10 days; 9 subjects received MBX-102 400 mg/day for 10 days; 20 subjects received MBX-102 600 mg/day for 10 days; 10 subjects received MBX-102 600 mg Enteric Coated (EC) /day for 10 days; 9 subjects received MBX-102 800 mg EC/day for 10 days; 10 subjects received MBX-102 1000 mg EC/day for 10 days; 24 subjects received placebo treatment daily for 10 days; and 25 subjects received naproxen 500 mg b.i.d. monotherapy for 7 days. In this study, serum uric acid was measured at screening and on Days 1, 3, 5, 7, 9, 14, and 21.

The subject of the next series is 3T3-L1 adipocytes. In words: Example 1: suppression of uric-acid induced inflammation in vitro. As to conditions: 50-150 µM, uric acid 5 or 15 mg/dL, 3 or 7 days. It counts as cell-based, murine. How it is done: Differentiated murine 3T3-L1 adipocytes are cultured in vitro in 24 well plates. To the culture medium (-)-halofenic acid is added at a final concentration of 50- 150 µM prior to the addition of uric acid at 5 mg/dL or 15 mg/dL and the culture continued for 3 or 7 days. A parallel culture of cells is conducted in the presence of a vehicle such as dimethylsulfoxide (DMSO). At the end of the culture period media is removed, cells are isolated and messenger RNA prepared. The levels of secreted cytokines representing a panel of pro-inflammatory cytokines including but not restricted to monocyte chemoatractant protein-1 (MCP-1), tumor necrosis factor α (TNF-α), interlekin-1β, (IL-1β), interleukin-6 (IL-6) and interleukin-12 (Il-12) are determined in the media isolated from the cells using commercially available cytokine assay kits. The levels of gene expression for the mRNAs for a panel of pro-inflammatory cytokines including but not restricted to monocyte chemoatractant protein-1 (MCP-1), tumor necrosis factor α (TNF-α), interlekin-1β, (IL-1β), interleukin-6 (IL-6) and interleukin-12 (Il-12) are determined using real-time PCR. […] A similar study is also conducted in primary mouse macrophages and human umbilical vein endothelial cells.

Series [3] relates to high sensitivity C-Reactive Protein (hs-CRP). In words: Phase 1 multiple-dose study M102-0507: change in hs-CRP in type 2 diabetic patients on Glynase. In kind it is in vivo, human. How it is done:
Data presented in FIGS. 6 and 7 were generated based on a single-center, Phase 1, randomized, single-blind, multiple-dose study (M102-0507) evaluating the effect of (-)-halofenate given to type 2 diabetic patients who were receiving a stable dose of Glynase® (micronized glyburide). Eligible patients were initially dosed for 3 days with Glynase® 3 mg/day, and if safety and tolerability were acceptable to the Investigator, the dose was increased to Glynase® 6 mg/day for 4 days, followed by 14 days of Glynase® 6 mg and either (-)-halofenate 400 mg or 600 mg administration until Day 21, the patients were discharged on Day 22.
In this study, change in high sensitivity C-Reactive Protein (hs-CRP) from baseline was one of the endpoints. […] At Day 22, the mean percentage changes in C-reactive protein compared to Day 1 were -21.1% and -32.9% in Group 1 ((-)-halofenate 400 mg) and Group 2 ((-)-halofenate 600 mg), respectively.

Series [4] is described as follows: Plasma concentration of (-)-halofenic acid after daily oral 400 mg arhalofenate (LC-MS/MS). It counts as in vivo, human. How it is done: Methods used in relation to FIGS. 1-2 showing the pharmacokinetic profile of (-)-halofenic acid were as follows:
Plasma proteins in human plasma samples containing of (-)-halofenic acid, an internal standard (I.S.) and heparin as the anticoagulant were precipitated with acetonitrile. The samples were vortex mixed, centrifuged and an aliquot was analyzed by reversed phase high performance liquid chromatography using a Phenomenex Polar RP column maintained at 45 °C. The mobile phase was nebulized using heated nitrogen in a Z-spray source/interface and the ionized compounds were detected using a tandem quadrupole mass spectrometer.
The plasma concentrations were rounded to the nearest one-tenth µg/mL before the calculations. Plasma samples with concentrations below the quantifiable limit of 1.0 µg/mL (BQL) were assigned values of zero.

A further series deals with IL-1β. Description: IL-1β mRNA and secretion in LPS stimulated primary mouse macrophages. It counts as cell-based. As to conditions: 75 and 150 µM, 1 hour before 100 ng/mL LPS for 8 hours. How it is done:
Methods used in relation to FIGS. 4-5 showing effects of (-)-halofenic acid IL-1β were as follows:
Eight week-old male C57BL/6J mice were injected intra-peritoneally with 2.5 mL of 3% thioglycollate. Three days after injection, mice were sacrificed by cervical dislocation. Macrophages were harvested immediately by injecting 5 mL of PBS into the intra-peritoneal cavity, surgically exposing the intra-peritoneal cavity and aspirating the intra-peritoneal fluid with a 1 mL syringe. Macrophages from multiple animals were pooled and centrifuged at 1500 rpm, 10 min at 4 °C. Contaminating red blood cells were removed from the pellet by lysis with 10 mL RBC lysis buffer for 5min at room temperature, followed by centrifugation at 1500 rpm, 10 min at 4 °C. The cells were washed once and re-suspended in RPMI 1640, 10% FBS/0.1% Pen/Strep and plated into multi-well plates (1,000,000 cells/well for 24 well plates and 100,000 cells/well for 96 well plates). The cells were cultured for 30 hours, re-fed with fresh RPMI 1640, 0.5% FBS and incubated overnight. […]
The cells were harvested in Qiazol lysis solution for gene expression analysis. […] The Ct values for IL-1β were determined using ABI Sequence Detection Software. […] The fold change is then calculated using the formula 2^-[delta][delta]Ct. […]

The mark [5] stands for this setting: 600 mg Enteric Coated (EC)/day for 10 days.

On to `O=c1[nH]cnc2c(CN3C[C@H](CO)[C@@H](O)C3)c[nH]c12` [BCX4208, 7-(((3R,4R)-3-hydroxy-4-(hydroxymethyl)pyrrolidin-1-yl)methyl)-3H-pyrrolo[3,2-d]pyrimidin-4(5H)-one], for which the serum uric acid entry in the series on serum uric acid [1] was “rapidly and significantly reduced”.
Take `CC(=O)NCCOC(=O)[C@H](Oc1cccc(C(F)(F)F)c1)c1ccc(Cl)cc1` [(-)-halofenate, (-)-(R)-(4-chloro-phenyl)-(3-trifluoromethyl-phenoxy)-acetic acid 2-acetylamino-ethyl ester]: the Mean % change in the series with serum uric acid [2] (400 mg/day orally for 10 days) was -21%; in the series with serum uric acid [2] (setting [5]), -30%; in the series on serum uric acid [2] (600 mg/day orally for 10 days), -33%; in the series on serum uric acid [2] (800 mg EC/day for 10 days) it was -32%; in the series on serum uric acid [2] (1000 mg EC/day for 10 days), -45%. Further, the “Mean change at Day 9” value in the series on serum uric acid [2] (400 mg/day orally for 10 days) was -1.02 mg/dL; in the series with serum uric acid [2] (setting [5]), -1.69 mg/dL; with serum uric acid [2] (600 mg/day orally for 10 days), -1.65 mg/dL; in the series on serum uric acid [2] (800 mg EC/day for 10 days) it was -1.77 mg/dL; in the series on serum uric acid [2] (1000 mg EC/day for 10 days), -2.44 mg/dL. The “Mean uric acid at Day 9” value in the series on serum uric acid [2] (400 mg/day orally for 10 days) amounted to 3.89 mg/dL; in the series on serum uric acid [2] (setting [5]), 3.92 mg/dL; in the series on serum uric acid [2] (600 mg/day orally for 10 days), 3.40 mg/dL; in the series with serum uric acid [2] (800 mg EC/day for 10 days), 3.83 mg/dL; in the series on serum uric acid [2] (1000 mg EC/day for 10 days), 3.04 mg/dL. For the same compound, the “reduction in serum uric acid” value in the series on serum uric acid [2] (all dose levels tested, dose dependent, over a period of time) is “gradual reduction”. The “expression and secretion of panel of pro-inflammatory cytokines” value in the series on 3T3-L1 adipocytes is “reduced level of expression and consequently secretion”. Besides, in the series with 3T3-L1 adipocytes, the “uptake of uric acid into 3T3-L1 adipocytes” value is recorded as “prevents the uptake of uric acid”. Moreover, in series [3] ((-)-halofenate 600 mg/day Day 8-21 with Glynase 6 mg/day, type 2 diabetic patients), the “Day 22 hs-CRP” value was found to be 4.4. In addition, the “mean percentage change in C-reactive protein at Day 22 compared to Day 1” value in series [3] (Group 1: 400 mg/day Day 8-21 with Glynase 6 mg/day) was -21.1%. Moreover, the “Mean % change from Day 8 (Day 22 hs-CRP)” value in series [3] (Group 2: 600 mg/day Day 8-21 with Glynase 6 mg/day, Day 8 = Glyburide only phase) is listed as -33.3%.
Take `O=C(O)C(Oc1cccc(C(F)(F)F)c1)c1ccc(Cl)cc1` (single isomer, unassigned; (-)) [(-)-halofenic acid, (-)-4-chlorophenyl-(3-trifluoromethylphenoxy) acetic acid]: the intraday plasma concentration result in series [4] (Day 15 and Day 30, daily oral 400 mg arhalofenate, FIG. 2) was “relatively constant”. In series [4] (plasma, daily oral 400 mg arhalofenate for 30 days, FIGS. 1-2), the half-life entry is reported as “long half-life”. Besides, the “messenger RNA encoding the pro-inflammatory cytokine IL-1β” value with IL-1β (FIG. 4) was “lower the messenger RNA”. Moreover, the “secretion of the pro-inflammatory cytokine IL-1β” value in the series on IL-1β (FIG. 5) was “lowering the secretion”.
